In patent US20020197244A1, “Compositions and methods for regulating phagocytosis and ICAM-1 expression” (priority 1998, published 2002):

Columns and labels:
[1] = tested on: Keratinocytes; assay: Scanning electron microscopy of keratinocyte podia; format: cell-based; settings: treated two days; vs vehicle-treated controls; FIG. 8
Method: PAR-2 Effect on Phagocytosis and Migration Relates to Changes in Cell Shape Both phagocytosis and cell migration involve changes in cell shape. Therefore, the effect of the PAR-2 pathway reagents on cell podia were studied using scanning electron microscopy. Keratinocytes were treated with Compound I (identified as “SH00230”), SLIGRL and a buffer vehicle for two days, and then processed for SEM using standard techniques. […] In other words, the cells' “fingers” are shorter and malformed, so they cannot grasp objects as well as can the control cells. […] In other words, these cells have a greater probability for productive interaction with particles. Comparing these SEM pictures in FIG. 8, it is clear that SLIGRL-treated cells have a greater ability to interact with particles, while Compound I-treated cells are less suited for such a task.

[2] = tested on: fibroblast cell line 92-3T3; assay: Fluorescent microsphere ingestion by fibroblasts; format: cell-based; settings: vs untreated fibroblasts; FIG. 3
Method: In this example, human primary keratinocytes or the human keratinocyte cell line HaCaT were used as in vitro model systems to study the effect of PAR-2 regulators on keratinocyte phagocytosis. The human primary keratinocytes used are commercially available from Clonetics (San Diego, Calif.). Cells were plated on chamber slides, at 2 chambers/slide and 60,000 cells/chamber. Cells were treated once daily, for two or three days, with Compound I (1μM), SLIGRL (10μM), or vehicle (Phosphate-buffered saline, (“PBS”) from Gibco-BRL (Gaithersburg, Md.). After two or three days of exposure to the test compounds, cells were exposed to Nile-red or FITC fluorescent microspheres, 1 μm in diameter, 50 microspheres/cell, for two hours at 37° C. Microspheres were from Molecular Probes (Eugene, Oreg.), and were processed according to manufacturer's instructions. Following that treatment, cells were incubated with 15% Fetal Bovine Serum (“FBS”, from Gibco-BRL), for 15 minutes at 37° C. and rinsed with PBS. At that time, chambers were separated from the slides, and the slides were covered with glycerol and coverslips. Fluorescent microscopy was performed using a Zeiss Axiovert 35 or a Nikon Optiphot-2 microscope.
The experiment described in Example 1 was repeated using the fibroblast cell line 92-3T3 (obtained from the ATCC in Rockville, Md.). Fibroblasts are not known to posses phagocytic ability.

[3] = tested on: melanocytes; assay: Fluorescent microsphere ingestion by melanocytes; format: cell-based; settings: which do not express PAR-2
[4] = tested on: human age spots; assay: Lightening of human age spots, topical treatment; format: in vivo; settings: STI, 1%, in liposomes (20 mg/ml), twice a day, 8 weeks
Method: An individual with three age spots on the dorsum of […] hand was treated for eight weeks, twice a day, as follows. The proximal age spot was treated with placebo, containing 20 mg/ml of liposomes. The median age spot was not treated. The distal age spot was treated with STI, 1%, in liposomes (20 mg/ml). GDL liposomes were prepared as set forth in Niemiec, et al., with the exception of the following changes. The non-ionic liposomal formulation contained glycerol dilaurate (Emulsynt GDL, ISP Van Dyk)/cholesterol (Croda)/polyoxyethylene-10-stearyl ether (Brij76, ICI)/polyoxyethylene-9-lauryl ether, as at ratio of 37.5:12.5:33.3:16.7. Hepes buffer, 0.05M, pH 7.4 (Gibco-BRL of Gaithersburg, Md.) was used as the aqueous phase in the preparation of the liposomes. UV and visible light digital pictures were taken at times of 0, 4 and 8 weeks of treatment. L* (brightness) values were calculated from the images using Adobe Photoshop.
FIG. 11 is a composite of four pictures. The left panel is a visible light picture of the hand, before (upper) and after (lower) 8 weeks of treatment. At this orientation, the proximal age spot is placebo-treated, the median age spot is untreated, and the distal age spot is STI-treated.

CN[C@H](Cc1ccccc1)C(=O)N1CCCC1C(=O)N[C@@H](CCCNC(=N)N)C(=O)c1nc2ccccc2s1 (stereo partly drawn) [Compound I, (S)-N-Methyl-D-phenylalanyl-N-[4-[(aminoiminomethyl)amino]-1-(2-benzothiazolylcarbonyl)butyl]-L-prolinamide]
shape of cell podia [1]: dramatically shorter podia

SLIGRL [reference compound]
number of ingested beads [2]: increased the number of ingested beads | microsphere ingestion [3]: no inducible effect on microsphere ingestion | shape of cell podia [1]: podia were increased in number, were somewhat longer, and were much thinner

B1: STI: Soybean trypsin inhibitor, a serine protease inhibitor capable of affecting the PAR-2 pathway (protein, UniProt P01070 25-205, looked up)
Trypsin inhibitor A: DFVLDNEGNPLENGGTYYILSDITAFGGIRAAPTGNERCPLTVVQSRNELDKGIGTIISSPYRIRFIAEGHPLSLKFDSFAVIMLCVGIPTEWSVVEDLPEGPAVKIGENKDAMDGWFRLERVSDDEFNNYKLVFCPQQAEDDKCGDIGISIDHDDGTRRLVVSKNKPLVVQFQKLDKESL
increase in L* (brightness) ([4]; calculated from images): 15 L* units | age spot appearance ([4]; one individual, FIG. 11): became lighter
